The source of these data is patent publication US20220079912A1, “ANTICANCER FORMULATION” (University of Mississippi, priority 2018, published 2022).

The test system of one series is B16 cells. Nature of the series: Lactic acid export (intracellular lactic acid levels). It is filed as cell-based, mouse. Particulars: FIG. 4. Here is the method:
To prevent the buildup of lactic acid within the cell a family of monocarboxylate transporters (MCT) functions to transport lactic acid out of the cell (10). To determine if GH inhibits lactic acid export from the cell, and in this manner inhibits the accumulation of lactic acid in the cell culture medium, intracellular lactic acid levels were measured. If GH inhibited lactic acid export, treatment of cells with GH would result in the increase in intracellular lactic acid levels. As a positive control the MCT1 inhibitor AZD3965 was used.

The next series concerns TXNIP protein levels. The series can be described thus: Western blot of TXNIP protein, MDA-MB-231 cell line. It counts as cell-based, human. Particulars: FIG. 16, FIG. 18. An excerpt:
AMPK activation has been previously shown to phosphorylate and cause the degradation of TXNIP during energy stress (13).

Another series relates to ARRDC4 mRNA. Nature of the series: Differential gene expression analysis (RNA-Seq) in T98G cells. It is filed as cell-based, human. The settings on record: 2 hours, GH 8 μM, 2-DG 25 mM, Ph 100, minus = reduced, plus = increase, NC = no change. From the text: (§1) GH inhibits expression of TXNIP and ARRDC4 mRNAs. […] Since the transcription factors (MondoA/Mlx complex) regulating the expression of the TXNIP gene is thought to be controlled by intermediates in the upper portion of the glycolytic pathway (12), GH may be negatively impacting this portion of glycolysis. Reduction in the levels of these intermediates by GH would prevent activation of the MondoA/Mlx transcription complex and would result in suppression of TXNIP transcription and TXNIP mRNA levels. Both of these gene products (TXNIP and ARRDC4) are thought to suppress glucose transport by enhancing degradation of glucose transporters (12).

The next series deals with TXNIP mRNA. The series is described as above. It is filed as cell-based, human. The settings on record: 2 hours, GH 8 μM, 2-DG 25 mM, Ph 100, minus = reduced, plus = increase, NC = no change.
Source text: as §1

Another series relates to SK-MEL. The series can be described thus: Combination cytotoxicity with phenformin. It is filed as cell-based. The settings on record: data not shown.
The test system of series [1] is Mia-PACA pancreatic cancer. The series can be described thus: Colony formation assay, combination with DHEA. It is filed as cell-based, human. The settings on record: 24 h, FIG. 20.
The test system of series [2] is cancer stem cells (CSCs) grown from BNC6 patient derived Glioblastoma cells. The series can be described thus: Cell viability by Trypan Blue exclusion cell count, combination with DHEA. It is filed as cell-based, human. The settings on record: 24 h, FIGS. 22A-B.
The next series concerns BT-549. Nature of the series: Combination cytotoxicity with phenformin. It is filed as cell-based. The settings on record: BT-549, data not shown.
The test system of another series is MDA-MB-231 cells. The series can be described thus: Glucose transport (2-NBDG accumulation). It is filed as cell-based, human. The settings on record: MDA-MB-231, treated for one hour followed by 2-NBDG for one hour. An excerpt: Phloretin, a known glucose transport inhibitor, was used as a positive control. Accumulation of 2-NDGB was inhibited by phloretin by 54% in T98G cells, by 31% in B16 cells and by 74% in MDA-MB-231 cells. The first panel for each cell line represents unstained cells, the second stained with 2-NBDG for one hour, the third treated with GH for one hour followed by 2-NBDG for one hour and the fourth treated with phloretin for one hour followed by 2-NBDG for one hour.

The test system of a further series is T98G glioblastoma cells. The series can be described thus: Colony formation assay, combination with DHEA. It is filed as cell-based, human. The settings on record: 12 h (other inhibitors 24 h), FIG. 19. Here is the method: GH, a glycolysis inhibitor, is cytotoxic to human tumor cells when used in combination with a Glucose-6-Phosphate Dehydrogenase inhibitor, dehydroepiandrosterone, (DHEA). To compensate for high ROS levels, cancer cells increase glycolysis and pentose phosphate cycle to provide reducing equivalents (NADH and NADPH) to neutralize hydro peroxides (15). […] The other glycolysis inhibitors tested in combination with DHEA were ineffective even at 24 h.

The subject of series [3] is bulk tumor cells from two patients with Temodar (TMZ)-resistant glioblastoma. Nature of the series: Combination cytotoxicity with Paw Paw acetogenin extract. It counts as cell-based, human. The settings on record: GH 4 μM, FIG. 11. From the text:
(§2) Example 3: Paw Paw Extract.

The test system of series [4] is cancer stem cell (CSC) populations from two patients with Temodar (TMZ)-resistant glioblastoma. The description is as above. It counts as cell-based, human. Particulars: GH 4 μM, FIG. 11.
Source text: as §2

Series [5] deals with BNC41 patient derived Glioblastoma cells. Nature of the series: Colony formation assay, combination with DHEA. It counts as cell-based, human. The settings on record: BNC41, 24 h, FIG. 20.
Series [6] deals with BNC3 patient derived Glioblastoma cells. Nature of the series: Colony formation assay, combination with DHEA. Particulars: BNC3, 24 h, FIG. 20. It counts as cell-based, human.
The subject of series [7] is T98G cells. The series can be described thus: Combination cytotoxicity with mitochondrial complex I inhibitors (% cell survival). From the text:
Example 2: Gnetin H In Combination with Mitochondrial Complex I Inhibitors. […] The plus signs above the combination treatment bars indicates the value of % cell survival if the anti-proliferative effect was additive.
In FIGS. 9 A-B., the plus signs are placed above the combination treatment bars at the % cell survival value if the anti-proliferative effect was additive. […] Both T98G and MDA-MB-231 cells lack functional p53 but B16 are p53 wild type.
Example 4: Peony Seed extract. […] T98G cells were treated with different concentrations of purified GH (numbers indicate μM) or PSE (numbers indicate μg/ml) alone or in combination with a Paw Paw (PP) extract (2 μg/ml) for 48 hrs (FIG. 12 A). The plus signs are placed above the combination treatment bars at the % cell survival value if the anti-proliferative effect was additive. […] T98G cells were treated with different concentrations of purified GH or PSE in combination with a Paw Paw extract (2 μg/ml) for 48 hrs (FIG. 12 B).

Series [8] deals with T98G cells. Nature of the series: Apoptosis, annexin V/propidium iodide (PI) staining. The settings on record: FIG. 10. It is filed as cell-based, human. From the text:
This additional target remains to be identified.

The test system of series [9] is T98G cells. Nature of the series: Glucose transport (2-NBDG accumulation). It counts as cell-based, human. Particulars: treated for one hour followed by 2-NBDG for one hour.
Series [10] relates to MDA-MB-231 human breast cancer cells. The series can be described thus: Lactic acid accumulation in cell culture medium. The settings on record: MDA-MB-231, FIG. 2C. It is filed as cell-based. From the text: (§3) During cell survival experiments the acidification of the cell culture medium was inhibited when GH was present. Acidification of the cell culture medium occurs because of the enhanced use of glycolysis by transformed cells (and resulting increase in lactic acid production). This led us to investigate whether GH reduced lactic acid levels in the cell culture medium.

A further series deals with B16 mouse melanoma cells. Nature of the series: Lactic acid accumulation in cell culture medium. The settings on record: B16, FIG. 2A. It is filed as cell-based.
Source text: as §3

The next series has as its system SKOV-3 ovarian cancer. The series can be described thus: Colony formation assay, combination with DHEA. It is filed as cell-based, human. The settings on record: SKOV-3, 24 h, FIG. 20.

Molecules are shown by their SMILES.

Consider `Oc1ccc(/C=C/c2c3c(cc4c2[C@H](c2cc(O)cc(O)c2)[C@@H](c2ccc(O)cc2)O4)O[C@H](c2ccc(O)cc2)[C@H]3c2cc(O)cc(O)c2)cc1` (relative stereo) [GH, trans-Gnetin H], for which the “effect on intracellular lactic acid” value in the series with B16 cells is “did not increase intracellular lactic acid”. In the series on TXNIP protein levels, the “TXNIP protein levels, in combination with Ph” value is listed as “reduction of TXNIP protein levels”. In the series on TXNIP protein levels (GH 8 μM 6 hrs or 3 hrs, 2-DG 25 mM, OXA 25 mM, BPX 25 μM, DCA 25 mM, 6 hr), the “TXNIP protein levels, agent alone” value is reported as “dramatic reduction in the levels of TXNIP protein”. Besides, the “ARRDC4 mRNA fold change” value with ARRDC4 mRNA is −6 fold. The “TXNIP mRNA fold change” value in the series on TXNIP mRNA is listed as −88 fold. The “synergistic cytotoxicity with phenformin” value with SK-MEL and with BT-549 was “synergistically cytotoxic” each time. Besides, the “cytotoxicity in combination with DHEA (cell staining)” value is “cytotoxic” in [1]; “rapidly cytotoxic” in the series on T98G glioblastoma cells; “cytotoxic” in series [5]; “cytotoxic” in series [6]; “cytotoxic” in the series on SKOV-3 ovarian cancer. Also, in [2], the “cytotoxicity in combination with DHEA (percentage of cell viability)” value is listed as “cytotoxic”. The “effect on accumulation of 2-NBDG (glucose transport)” value with MDA-MB-231 cells and in the series on T98G cells [9] was “did not influence the accumulation” in each case. Further, the “synergistic cytotoxicity in combination with acetogenin extract from Paw Paw (PP-2 μg/ml)” value in series [3] and in series [4] was “synergistically cytotoxic” each time. For the same compound, in the series with T98G cells [7], the “synergistic cytotoxicity in combination with Paw Paw (PP) extract (2 μg/ml)” value is “exhibited synergistic cytotoxicity”. Also, the “synergistic cytotoxicity in combination with acetogenins (PP) at 1 μg/ml” value in the series on T98G cells [7] was “synergistically cytotoxic”. The “IC50 in combination with PP” value with T98G cells [7] (T98G, Paw Paw extract 2 μg/ml, 48 hrs, FIG. 12 B) was 1.3 µg/mL. In addition, the “induction of apoptosis in combination with Paw Paw extract (PP)” value in the series with T98G cells [8] was “extensive induction of apoptosis”. Further, in the series with T98G cells [8], the “induction of apoptosis in combination with phenformin (Ph)” value is listed as “extensive induction of apoptosis”. Moreover, the lactic acid production result (in [10]; in the series on B16 mouse melanoma cells) was “inhibits lactic acid production” throughout.
